From US8134012B2 (priority 2005, dated 2012)
Where two headings read alike, the source gives them in different places.

How the values were obtained:
[1] = system: Pyricularia oryzae; type: cell-based
[2] = system: Alternaria mali; conditions: active compound concentration 1 ppm; 3 days incubation in PDB; single active compound

Structure (SMILES) | Efficacy in % found ([1]; active compound concentration 0.03 ppm, 4 days incubation in PDB, single active compound) [%] | Efficacy in % found [2] [%] | Efficacy in % found [1] [%]
Cc1nn(C)c(F)c1C(=O)Nc1ccccc1C(C)CC(C)C (stereo not shown) [(1-2), N-[2-(1,3-dimethylbutyl)phenyl]-5-fluoro-1,3-dimethyl-1H-pyrazole-4-carboxamide] | 20 | 83 | 
COP(=S)(OC)Oc1c(Cl)cc(C)cc1Cl [(2) tolclofos-methyl, tolclofos-methyl] |  |  | 13
CC(C)Oc1cccc(NC(=O)c2ccccc2C(F)(F)F)c1 [(3) flutolanil, flutolanil] |  | 12 | 
